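Step 1: Grow cells in 96-well plates. Step 2: Expose to compound for 48 hours at 5 concentrations. Step 3: Interpolate endpoints linearly; if unreached, use highest concentration. GI50: concentration for 50% inhibition of growth. Definition used: TGI = concentration required for complete inhibition of growth.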
Tests used:
Assay in all cases: NCI anticancer screen, dose series, 48 h
SF-539 CNS = system: SF-539 CNS
HL-60(TB) leukemia = system: HL-60(TB) leukemia
SN12C renal = system: SN12C renal
HCC-2998 colon = system: HCC-2998 colon
KM12 colon = system: KM12 colon
COLO 205 colon = system: COLO 205 colon
SK-OV-3 ovarian = system: SK-OV-3 ovarian
RXF 393 renal = system: RXF 393 renal
SNB-78 CNS = system: SNB-78 CNS
DMS 273 small cell lung = system: DMS 273 small cell lung

Cc1ncc(-c2ccnc(Nc3ccc(S(C)(=O)=O)cc3)n2)n1C(C)C
GI50 (SF-539 CNS): 0.56 µM
TGI (SF-539 CNS): 2.71 µM
GI50 (HL-60(TB) leukemia): 1.06 µM
TGI (HL-60(TB) leukemia): 4.64 µM
GI50 (SN12C renal): 1.34 µM
TGI (SN12C renal): 9.84 µM
GI50 (HCC-2998 colon): 1.35 µM
TGI (HCC-2998 colon): 5.59 µM
GI50 (KM12 colon): 0.527 µM
TGI (KM12 colon): 2.33 µM
GI50 (COLO 205 colon): 0.532 µM
TGI (COLO 205 colon): 2.37 µM
GI50 (SK-OV-3 ovarian): 4.16 µM
TGI (SK-OV-3 ovarian): > 10 µM
GI50 (RXF 393 renal): 0.211 µM
TGI (RXF 393 renal): 0.678 µM

CN1CCN(c2ccc(C(=O)Nc3cccc(C#Cc4cccc5[nH]nc(N)c45)c3)cc2C(F)(F)F)CC1
GI50 (SF-539 CNS): 0.544 µM
TGI (SF-539 CNS): 1.16 µM
GI50 (HL-60(TB) leukemia): 0.866 µM
TGI (HL-60(TB) leukemia): 3.08 µM
GI50 (SN12C renal): 1.2 µM
TGI (SN12C renal): 4.54 µM
GI50 (HCC-2998 colon): 0.658 µM
TGI (HCC-2998 colon): 1.31 µM
GI50 (KM12 colon): 0.808 µM
TGI (KM12 colon): 1.95 µM
GI50 (COLO 205 colon): 0.581 µM
TGI (COLO 205 colon): 1.2 µM
GI50 (SK-OV-3 ovarian): 1.62 µM
TGI (SK-OV-3 ovarian): 5.34 µM
GI50 (RXF 393 renal): 0.799 µM
TGI (RXF 393 renal): 2.31 µM

Cc1cc(S(N)(=O)=O)c(S/C(=N\Nc2ccc([N+](=O)[O-])cc2)c2ccc3ccccc3c2)cc1Cl
GI50 (SF-539 CNS): 4.1 µM
TGI (SF-539 CNS): 18.7 µM
GI50 (HL-60(TB) leukemia): > 100 µM
TGI (HL-60(TB) leukemia): > 100 µM
GI50 (SN12C renal): 18.6 µM
TGI (SN12C renal): 44.1 µM
GI50 (HCC-2998 colon): 14.7 µM
TGI (HCC-2998 colon): 30.1 µM
GI50 (KM12 colon): 25.2 µM
TGI (KM12 colon): 99 µM
GI50 (COLO 205 colon): 84 µM
TGI (COLO 205 colon): > 100 µM
GI50 (SK-OV-3 ovarian): 20.4 µM
TGI (SK-OV-3 ovarian): 55.8 µM
GI50 (RXF 393 renal): 8.69 µM
TGI (RXF 393 renal): 54.8 µM

COC(=O)/C(=C\c1c(-c2ccccc2)[nH]c2ccccc12)S(C)(=O)=O
GI50 (SF-539 CNS): 3.11 µM
TGI (SF-539 CNS): 11.5 µM
GI50 (HL-60(TB) leukemia): 3.38 µM
TGI (HL-60(TB) leukemia): 15.1 µM
GI50 (SN12C renal): 3.14 µM
TGI (SN12C renal): 32 µM
GI50 (HCC-2998 colon): 8.78 µM
TGI (HCC-2998 colon): 22.4 µM
GI50 (KM12 colon): 1.48 µM
TGI (KM12 colon): 4.42 µM
GI50 (COLO 205 colon): 4.39 µM
TGI (COLO 205 colon): 18.5 µM
GI50 (SK-OV-3 ovarian): 12.1 µM
TGI (SK-OV-3 ovarian): 75.5 µM
GI50 (RXF 393 renal): 7.23 µM
TGI (RXF 393 renal): 68.2 µM

CSc1nc(N)c2c(n1)NC(c1ccccc1)C1CCc3ccccc3C1=N2 (configuration not stated)
GI50 (SF-539 CNS): > 100 µM
TGI (SF-539 CNS): > 100 µM
GI50 (HL-60(TB) leukemia): 4 µM
TGI (HL-60(TB) leukemia): > 100 µM
GI50 (SN12C renal): 30.9 µM
TGI (SN12C renal): > 100 µM
GI50 (HCC-2998 colon): > 100 µM
TGI (HCC-2998 colon): > 100 µM
GI50 (KM12 colon): 6.52 µM
TGI (KM12 colon): > 100 µM
GI50 (COLO 205 colon): 25.8 µM
TGI (COLO 205 colon): > 100 µM
GI50 (SK-OV-3 ovarian): > 100 µM
TGI (SK-OV-3 ovarian): > 100 µM
GI50 (RXF 393 renal): 4.71 µM
TGI (RXF 393 renal): > 100 µM

COc1cc2ccc(CC(N)=O)cc2cc1OC
TGI (SF-539 CNS): > 100 µM
TGI (SNB-78 CNS): > 100 µM
TGI (SN12C renal): > 100 µM
TGI (DMS 273 small cell lung): > 100 µM
TGI (KM12 colon): > 100 µM
TGI (COLO 205 colon): > 100 µM
TGI (SK-OV-3 ovarian): > 100 µM
TGI (RXF 393 renal): > 100 µM

O=Nc1c(O)c2ccccc2c2ccccc12
GI50 (SF-539 CNS): 0.379 µM
TGI (SF-539 CNS): 1.6 µM
GI50 (HL-60(TB) leukemia): 2.47 µM
TGI (HL-60(TB) leukemia): 7.97 µM
GI50 (SN12C renal): 0.449 µM
TGI (SN12C renal): 1.88 µM
GI50 (HCC-2998 colon): 1.91 µM
TGI (HCC-2998 colon): 3.7 µM
GI50 (KM12 colon): 1.76 µM
TGI (KM12 colon): 3.34 µM
GI50 (COLO 205 colon): 1.92 µM
TGI (COLO 205 colon): 3.46 µM
GI50 (SK-OV-3 ovarian): 2.48 µM
TGI (SK-OV-3 ovarian): 6.27 µM
GI50 (RXF 393 renal): 1.72 µM
TGI (RXF 393 renal): 3.23 µM

CC(=O)NC1=C(Sc2ccc(Cl)cc2)C(=O)c2ccccc2C1=O
TGI (SF-539 CNS): 5.85 µM
TGI (HL-60(TB) leukemia): 1.63 µM
TGI (SN12C renal): 16.2 µM
TGI (HCC-2998 colon): 27.8 µM
TGI (KM12 colon): 16.6 µM
TGI (COLO 205 colon): 3.6 µM
TGI (SK-OV-3 ovarian): 29.1 µM
TGI (RXF 393 renal): 4.65 µM

Source: PubChem BioAssay (NCI)
